Laboratory results published in US12351580B2, “NLRP3 modulators” (Innate Tumor Immunity, Inc., priority 2017, dated 2025).

Target: T1, hNLRP3 (Homo sapiens, UniProt Q96P20)
T1 construct: THP-1 cells were purchased from the American Type Culture Collection; host or cells: THP-1 cells, PMA-differentiated
Experiment: Measurement of IL-1β production in PMA-differentiated THP-1 cells (hNLRP3 agonist; ELISA, alternative and hTRF procedures)
Format: cell-based
Procedure, shortened: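 Supernatant IL-1β was quantified by ELISA in two procedures and by hTRF (kit antibodies at 1:40) in a third. THP-1 cells were first differentiated with PMA ([…] for 24 h; 20 μg/ml overnight; 50 ng/ml overnight), then incubated in 2% FBS RPMI with compounds for 4 h, 2 h and 2 h, respectively, at 1% DMSO or a 10 μM top concentration.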

T1 sequence (Q96P20 whole entry): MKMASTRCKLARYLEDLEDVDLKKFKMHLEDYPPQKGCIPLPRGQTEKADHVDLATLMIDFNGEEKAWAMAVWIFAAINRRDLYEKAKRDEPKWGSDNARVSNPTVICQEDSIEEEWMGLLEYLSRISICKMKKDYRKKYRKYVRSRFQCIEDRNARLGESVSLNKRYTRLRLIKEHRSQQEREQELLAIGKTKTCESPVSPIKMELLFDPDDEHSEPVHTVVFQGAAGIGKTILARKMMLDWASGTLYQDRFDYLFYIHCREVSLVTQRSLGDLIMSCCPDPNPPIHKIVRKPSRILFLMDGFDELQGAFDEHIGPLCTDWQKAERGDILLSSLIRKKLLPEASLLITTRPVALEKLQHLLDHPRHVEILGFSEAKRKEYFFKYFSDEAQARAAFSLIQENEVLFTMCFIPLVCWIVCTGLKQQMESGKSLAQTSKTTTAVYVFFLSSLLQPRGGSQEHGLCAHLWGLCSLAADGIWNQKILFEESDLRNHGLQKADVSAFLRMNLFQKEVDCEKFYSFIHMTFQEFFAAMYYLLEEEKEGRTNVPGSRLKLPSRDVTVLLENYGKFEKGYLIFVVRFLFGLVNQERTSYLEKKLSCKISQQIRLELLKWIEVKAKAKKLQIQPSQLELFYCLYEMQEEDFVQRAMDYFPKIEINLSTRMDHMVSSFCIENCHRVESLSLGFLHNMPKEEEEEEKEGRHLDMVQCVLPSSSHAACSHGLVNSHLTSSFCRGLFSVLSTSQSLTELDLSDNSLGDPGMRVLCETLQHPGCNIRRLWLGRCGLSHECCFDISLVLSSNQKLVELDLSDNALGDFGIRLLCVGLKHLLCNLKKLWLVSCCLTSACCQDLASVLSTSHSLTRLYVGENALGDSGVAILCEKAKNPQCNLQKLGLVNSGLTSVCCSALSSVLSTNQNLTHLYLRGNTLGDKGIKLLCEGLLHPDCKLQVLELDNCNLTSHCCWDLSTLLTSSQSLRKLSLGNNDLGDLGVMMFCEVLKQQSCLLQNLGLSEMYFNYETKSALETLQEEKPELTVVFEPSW

SMILES | EC50
CCC(=O)N(CC)Cc1nc2c(N)nc3cc(-n4cccn4)ccc3c2n1CCO [Compound 478, N-{[4-amino-1-(2-hydroxyethyl)-7-(1H-pyrazol-1-yl)-1H-imidazo[4,5-c]quinolin-2-yl]methyl}-N-ethylpropanamide] | 3700 nM
CCN(Cc1nc2c(N)nc3cc(-n4cccn4)ccc3c2n1CC)C(C)=O [Compound 479, N-{[4-amino-1-ethyl-7-(1H-pyrazol-1-yl)-1H-imidazo[4,5-c]quinolin-2-yl]methyl}-N-ethylacetamide] | 670 nM
CCC(=O)N(CC)Cc1nc2c(N)nc3cc(-c4cccs4)ccc3c2n1CC [Compound 480, N-{[4-amino-1-ethyl-7-(thiophen-2-yl)-1H-imidazo[4,5-c]quinolin-2-yl]methyl}-N-ethylpropanamide] | 1900 nM
CCC(=O)N(CC)Cc1nc2c(N)nc3cc(-n4cccn4)ccc3c2n1CC [Compound 481, N-{[4-amino-1-ethyl-7-(1H-pyrazol-1-yl)-1H-imidazo[4,5-c]quinolin-2-yl]methyl}-N-ethylpropanamide] | 630 nM
CCN(Cc1nc2c(N)nc3cc(-c4cccs4)ccc3c2n1CCO)C(C)=O [Compound 482, N-{[4-amino-1-(2-hydroxyethyl)-7-(thiophen-2-yl)-1H-imidazo[4,5-c]quinolin-2-yl]methyl}-N-ethylacetamide] | 430 nM
